The text below walks through data of patent US4724238A, “Method of treating inflammatory diseases with labdan derivatives” (Hoechst Aktiengesellschaft, priority 1985, dated 1988).

The subject of experiment [1] is rat ear inflammation. Briefly: Croton oil-induced local inflammation test in rats (topical). The class given is in vivo, rat (Charles Foster's strain). The settings on record: applied with the irritant, 4 hours. The protocol:
(b) Croton oil-induced local inflammation test in rats A volume of 0.05 ml of croton oil irritant (2.0 ml pyridine, 0.5 ml distilled water+7.4 ml diethyl ether+0.1 ml croton oil) is applied under ether anaesthesia to the anterior and posterior sides of the ear of rats weighing 45 to 60 g (Charles Foster's strain) with the help of a micro glass syringe and a blunt 20 gauge needle/Tonelli G., Thibault L. and Ringer I, Endocrinology 77, 625-634 (1965)/. The right untreated ear serves as control. The drug treated group receives different concentrations of compounds along with the irritant. Four hours later the animals are sacrificed. The ears are removed and punched with an 8 mm diameter cork borer. The punched portions are immediately weighed. The increase in the weight of ear is determined by the difference in the weight between the left and right ear. The topical anti-inflammatory activity of the test compound is expressed as the percent inhibition of the increase in ear weight of the irritant treated ear according to the following formula [formula] The ED50 value is calculated from the dose response curve. Six animals are used per group.

Experiment [2] has as its system rat paw oedema. Kind of experiment: Acute carrageenin-induced rat paw oedema test (systemic). As to conditions: ip, paw volume at 3 and 6 hours after carrageenin. In kind it is in vivo, rat (Charles Foster, male). The protocol: (a) Acute carrageenin-induced rat paw oedema test Charles Foster male rats (120-150 g) are fasted for 18 hrs. with water ad libitum. The test compound suspended in 0.5% carboxymethyl cellulose (CMC) is given intraperitoneally. The control group receives 0.5% CMC suspension. 0.05 ml of the 0.5% carrageenin suspension is injected subcutaneously into the planter region of the left hind paw. The paw volume is determined before carrageenin injection and at 3 hours and 6 hours after injection using a Maclab volume differential meter. The percentage decrease in paw volume is calculated with the following formula: [formula] The ED50 value is calculated from the dose-response curve. Six animals are used per group.
(Carrageenan injected into the paw causes an acute inflammation.)

Experiment [3] deals with Adjuvant-induced arthritis in rats. Briefly: Adjuvant-induced arthritis test in rats, developing arthritis. The settings on record: i.p., once daily for 21 days. The class given is in vivo, rat (Charles Foster, female).
For experiment [4] the test system is unchanged. Kind of experiment: Adjuvant-induced arthritis test in rats, established arthritis. In kind it is in vivo, rat (Charles Foster, female). The settings on record: i.p., once daily from day 15 to day 21.
The test system of experiment [5] is Acetic acid induced writhing in mice. Briefly: Analgesic activity, acetic acid writhing test. In kind it is in vivo, mouse (male). The settings on record: Mus musculus, sc, 30 minutes before 0.2 ml of 3% acetic acid i.p.; observed 15 minutes. As to the method: Analgesic activity--Acetic acid writhing test
A test compound suspended in 0.5% carboxy methyl cellulose is given subcutaneously to the male mice (20-25 g). The control group received only the 0.5% CMC. After 30 minutes, 0.2 ml of 3% acetic acid is administered intraperitoneally. The animals are observed for 15 minutes for a characteristic stretching or writhing syndrome which is indicative of pain induced by acetic acid. Six animals are used per group.
In the test group, mice which show less than or equal to 50 percent of the mean control writhing value are considered to be protected. (Blumberg et al. Proc. Soc. Exp. Biol. Med., 118, 763-766, 1965). The percent analgesic activity is calculated as follows: [formula] The ED50 value is calculated from the dose response curve.
In general terms: An intraperitoneal irritant provokes the stretching counted in writhing tests.

A word on the ED50: it is the dose at which the effect has come halfway, by size or by number of responders. The low end stands for greater potency, the high end for weaker potency. On to `C=C[C@@]1(C)CC(=O)[C@@H]2[C@@]3(C)CCCC(C)(C)[C@@H]3[C@H](O)[C@H](OC(C)=O)[C@@]2(C)O1` [1,9-Dideoxyforskolin, 7β-acetoxy-1,9-dideoxy-8,13-epoxy-6β-hydroxy-labd-14-en-11-one], for which the “ED50, croton oil induced rat ear inflammation” value in experiment [1] stood at 1.6 mg/ear. Also, the ED50 worked out at 2.2 mg/kg in experiment [2] and 9 mg/kg in experiment [5]. Moreover, the “% inhibition of paw volume, developing arthritis” value in experiment [3] (3.0 mg/kg) is reported as 62%. In experiment [4] (3.0 mg/kg), the “% inhibition of paw volume, established arthritis” value came to 30%.
In the case of `C=C[C@@]1(C)CC(=O)[C@]2(O)[C@@]3(C)[C@@H](O)CCC(C)(C)[C@@H]3[C@H](O)[C@H](OC(C)=O)[C@@]2(C)O1` [Forskolin, 7β-acetoxy-8,13-epoxy-1α,6β,9α-trihydroxy-labd-14-en-11one], the “ED50, croton oil induced rat ear inflammation” value in experiment [1] worked out at 1.15 mg/ear. For the same compound, it took a dose of 4.8 mg/kg to reach the 50% effect level in experiment [2] (ED50). Moreover, the “% inhibition of paw volume, developing arthritis” value in experiment [3] (2.5 mg/kg) was found to be 23%. In addition, in experiment [4] (2.4 mg/kg), the “% inhibition of paw volume, established arthritis” value came out at 27%.
